Measured values: ChEMBL document CHEMBL1201862, “PubChem BioAssay data set” (2004)
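Dose response: 5 concentrations. Exposure: 48 h. Format: 96-well plates. Endpoint: linear interpolation; highest concentration if not reached. Here, GI50 denotes the concentration required for 50% inhibition of growth.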 Calls of active or inactive are those of the source. Cut-off read from the data, not from the text of the source: active = GI50 up to about 1.1 µM and inactive = higher.

Key:
Test in all cases: NCI-60 cell line screen, 48 h
T47D = system: T47D
SK-OV-3 = system: SK-OV-3
HCT-116 = system: HCT-116
OVCAR-4 = system: OVCAR-4
HL-60 = system: HL-60
DU-145 = system: DU-145
UO-31 = system: UO-31
SF-539 = system: SF-539
HCC 2998 = system: HCC 2998
SN12C = system: SN12C
EKVX = system: EKVX
HT-29 = system: HT-29
Malme-3M = system: Malme-3M
SF-295 = system: SF-295
SW-620 = system: SW-620
CAKI-1 = system: CAKI-1
NCI-H522 = system: NCI-H522
CCRF-CEM = system: CCRF-CEM
HOP-92 = system: HOP-92
HCT-15 = system: HCT-15

SMILES	GI50 (T47D)	GI50 (SK-OV-3)	GI50 (HCT-116)	GI50 (OVCAR-4)	GI50 (HL-60)	GI50 (DU-145)	GI50 (UO-31)	GI50 (SF-539)	GI50 (HCC 2998)	GI50 (SN12C)	GI50 (EKVX)	GI50 (HT-29)	GI50 (Malme-3M)	GI50 (SF-295)	GI50 (SW-620)	GI50 (CAKI-1)	GI50 (NCI-H522)	GI50 (CCRF-CEM)	GI50 (HOP-92)	GI50 (HCT-15) [µM]
O=[N+]([O-])c1cccc2nc3ccccc3c(NCCCn3ccnc3[N+](=O)[O-])c12	0.0407 µM (active)	0.0229 µM (active)	< 0.0001 µM (active)	0.0104 µM (active)	0.000889 µM (active)	< 0.0001 µM (active)	0.00076 µM (active)	0.00137 µM (active)	0.000156 µM (active)	0.000282 µM (active)	0.000298 µM (active)	< 0.0001 µM (active)	0.00023 µM (active)	0.0117 µM (active)	< 0.0001 µM (active)	0.000385 µM (active)	0.00046 µM (active)	0.00574 µM (active)	0.000187 µM (active)	0.000131
COc1ccc(C2=CN3CCC[C@H]3C=C2c2cc(O)c(OC)c(OC)c2)cc1OC	0.00371 µM (active)	0.00564 µM (active)	0.00198 µM (active)	0.00286 µM (active)	0.00351 µM (active)	0.00398 µM (active)	0.0108 µM (active)	0.00505 µM (active)	0.00482 µM (active)	0.00403 µM (active)	0.00608 µM (active)	0.0056 µM (active)	0.00421 µM (active)	0.00446 µM (active)	0.00337 µM (active)	0.00382 µM (active)	0.00418 µM (active)	0.0033 µM (active)	0.0038 µM (active)	0.00362
Cc1cccc2c(N)c3cccc(C(=O)NCC[N+](C)(C)Cc4c([N+](=O)[O-])ncn4C)c3nc12	67.8 µM (inactive)	31.6 µM (inactive)	26.4 µM (inactive)	> 48.2 µM (inactive)	5.92 µM (inactive)	46.8 µM (inactive)	16.6 µM (inactive)	11.5 µM (inactive)	6.73 µM (inactive)	6.93 µM (inactive)	> 66.1 µM (inactive)	12.7 µM (inactive)	> 43.6 µM (inactive)	25.4 µM (inactive)	18.9 µM (inactive)	2.69 µM (inactive)	12.4 µM (inactive)	18.9 µM (inactive)	40.6 µM (inactive)	27
COc1cc(NCc2ccc3nc(OC)c(OC)nc3c2)cc(OC)c1OC	18.6 µM (inactive)	> 100 µM (inactive)	> 100 µM (inactive)	> 100 µM (inactive)	> 100 µM (inactive)	> 100 µM (inactive)	> 100 µM (inactive)	> 100 µM (inactive)	> 100 µM (inactive)	> 100 µM (inactive)	77.4 µM (inactive)	> 100 µM (inactive)	> 100 µM (inactive)	80.5 µM (inactive)	> 100 µM (inactive)	> 100 µM (inactive)	86.5 µM (inactive)	83.9 µM (inactive)	> 100 µM (inactive)	> 100
Cc1ccnc2sc3ccccc3c(=O)c12	55.3 µM (inactive)	37.3 µM (inactive)	32 µM (inactive)	> 100 µM (inactive)	30 µM (inactive)	84.3 µM (inactive)	25.4 µM (inactive)	33.4 µM (inactive)	42.3 µM (inactive)	40.4 µM (inactive)	18 µM (inactive)	30.3 µM (inactive)	51.9 µM (inactive)	50.1 µM (inactive)	44.3 µM (inactive)	23.6 µM (inactive)	34.7 µM (inactive)	40.9 µM (inactive)	54 µM (inactive)	52.2
S=C1Cc2c(-c3ccc(Cl)cc3)cc(-c3ccccc3)nc2-c2ccccc2N1	19.8 µM (inactive)	10.6 µM (inactive)	11 µM (inactive)	3.08 µM (inactive)	30.6 µM (inactive)	22 µM (inactive)	14.8 µM (inactive)	4.01 µM (inactive)	23.9 µM (inactive)	13.5 µM (inactive)	15.6 µM (inactive)	5.47 µM (inactive)	13.8 µM (inactive)	14.2 µM (inactive)	19.1 µM (inactive)	3.95 µM (inactive)	15.7 µM (inactive)	26.2 µM (inactive)	8.04 µM (inactive)	21.1
CCOC(=O)Cn1nnc2cc(Nc3nc4ccccc4nc3C(=O)OCC)ccc21	> 100 µM (inactive)	50.2 µM (inactive)	> 100 µM (inactive)	> 100 µM (inactive)	> 100 µM (inactive)	> 100 µM (inactive)	2 µM (inactive)	17.3 µM (inactive)	> 100 µM (inactive)	> 100 µM (inactive)	33.7 µM (inactive)	> 100 µM (inactive)	> 100 µM (inactive)	26.4 µM (inactive)	> 100 µM (inactive)	> 100 µM (inactive)	> 100 µM (inactive)	> 100 µM (inactive)	20.9 µM (inactive)	> 100
CO[C@H]1[C@H](O)[C@H](O[C@H]2CC[C@@]3(C)[C@H](CC[C@@H]4[C@@H]3CC[C@]3(C)[C@@H](C5=CC(=O)OC5)CC[C@]43O)C2)O[C@@H](C)[C@@H]1O [NERIIFOLIN]	0.000628 µM (active)	0.00108 µM (active)	0.000689 µM (active)	0.00028 µM (active)	0.000419 µM (active)	< 0.0001 µM (active)	0.000902 µM (active)	0.000569 µM (active)	0.0094 µM (active)	0.000211 µM (active)	0.000473 µM (active)	0.000615 µM (active)	0.000428 µM (active)	0.00056 µM (active)	0.000925 µM (active)	0.000572 µM (active)	0.000151 µM (active)	0.000362 µM (active)	0.00123 µM (active)	0.00112
CC(=O)[C@H]1CC[C@H]2[C@@H]3CCC4=CC(=O)CC[C@]4(C)[C@H]3CC[C@]12C [PROGESTERONE]	20.1 µM (inactive)	20.4 µM (inactive)	14.5 µM (inactive)	18.7 µM (inactive)	9.98 µM (inactive)	28.1 µM (inactive)	11.4 µM (inactive)	17.6 µM (inactive)	16.9 µM (inactive)	18.6 µM (inactive)	1.16 µM (inactive)	15 µM (inactive)	17.3 µM (inactive)	25.9 µM (inactive)	31 µM (inactive)	28.5 µM (inactive)	15.6 µM (inactive)	15.7 µM (inactive)	25.7 µM (inactive)	18.9
O=C1NC(=O)[C@@]2(CC[C@@H](O)C2)c2ccncc21 [SESBANINE]	> 100 µM (inactive)	> 100 µM (inactive)	> 100 µM (inactive)	> 100 µM (inactive)	> 100 µM (inactive)	> 100 µM (inactive)	> 100 µM (inactive)	> 100 µM (inactive)	> 100 µM (inactive)	> 100 µM (inactive)	> 100 µM (inactive)	> 100 µM (inactive)	> 100 µM (inactive)	> 10 µM (inactive)	> 100 µM (inactive)	> 100 µM (inactive)	> 100 µM (inactive)	> 100 µM (inactive)	> 100 µM (inactive)	> 100
